Experiments:
RPE65 [1] = target: T1, RPE65 (Bos taurus, UniProt Q28175); conditions: RPE65 inhibition; cited from earlier work
RPE65 [2] = target: T1, RPE65; test: RPE65 retinoid isomerase activity assay; conditions: ratio of IC50 values
[3] = assay type: in vivo, mouse; conditions: for distribution within ocular tissue / accumulation in the eye compared with emixustat: single 380 nmol i.p. dose
[4] = 3 h after single 380 nmol i.p. dose

T1 sequence (Q28175 whole entry): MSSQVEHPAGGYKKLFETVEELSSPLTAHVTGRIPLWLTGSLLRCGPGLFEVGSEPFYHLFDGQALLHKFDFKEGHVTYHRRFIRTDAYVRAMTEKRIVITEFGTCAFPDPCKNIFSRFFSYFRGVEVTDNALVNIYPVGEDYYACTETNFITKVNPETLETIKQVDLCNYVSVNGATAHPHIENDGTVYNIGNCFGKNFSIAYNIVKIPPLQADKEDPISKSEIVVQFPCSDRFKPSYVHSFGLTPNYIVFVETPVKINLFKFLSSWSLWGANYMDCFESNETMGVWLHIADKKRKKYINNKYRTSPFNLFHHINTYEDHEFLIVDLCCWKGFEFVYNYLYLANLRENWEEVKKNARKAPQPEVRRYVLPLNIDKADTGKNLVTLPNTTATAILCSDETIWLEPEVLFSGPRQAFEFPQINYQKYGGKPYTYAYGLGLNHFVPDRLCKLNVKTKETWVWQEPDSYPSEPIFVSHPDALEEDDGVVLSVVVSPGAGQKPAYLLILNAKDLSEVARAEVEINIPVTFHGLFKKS

Compound | distribution within ocular tissue [3] | initial plasma (serum) level [4] | accumulation in the eye compared with emixustat [3] | other results
CCCC(CCC)COc1cccc([C@H](O)CCN)c1 [(R)-MB-004] |  |  |  | IC50 (RPE65 [1]): 106 ± 16 nM
CCCC(CCC)COc1cc([C@H](O)CCN)ccc1F [Compound 24, (R)-3-Amino-1-(4-fluoro-3-((2-propylpentyl)oxy)phenyl)propan-1-ol] | poorest distribution within ocular tissue | highest initial plasma levels |  | inhibitory potency relative to racemic emixustat (RPE65 [2]): 3 times
NCCC(O)c1ccc(F)c(OCC2CCCCC2)c1 (stereo not shown) [Compound 49, 3-Amino-1-(3-(cyclohexylmethoxy)-4-fluorophenyl)propan-1-ol] | poorest distribution within ocular tissue | highest initial plasma levels |  | 
NCCC(O)c1cccc(OCC2CCC(F)(F)CC2)c1 (stereo not shown) [Compound 57, 3-Amino-1-(3-((4,4-difluorocyclohexyl)methoxy)phenyl) propan-1-ol] |  |  | accumulate more | eye amount relative to compounds 24 and 49 ([3]; day 7 after single i.p. dose): 10 times; eye amount relative to emixustat ([3]; day 7 after single i.p. dose): 5 times
[2H]C([2H])(N)CC(O)c1cccc(OCC2CCC(F)(F)CC2)c1 (stereo not shown) [Compound 59, 3-Amino-1-(3-((4,4-difluorocyclohexyl)methoxy)phenyl)propan-3,3-d2-1-ol] |  |  | accumulate more | 
